Measurements: patent US5252563A, “5,6,7,8-tetrahydro-imidazo[1,2-a]pyrimidine compounds for treatment of neurotoxic injury” (G. D. Searle & Company, priority 1991, dated 1993)
Structures can show the parent of a compound that is named as a salt.

Tests used:
[1] = test system: NMDA receptor (N-methyl-D-aspartate-specific L-[^3 H]glutamate recognition site in synaptic plasma membranes); experiment: NMDA-Selective Glutamate Binding Assay ([^3 H]GLU)
Procedure: (§1) Synaptic plasma membranes (SPM) were prepared as previously described [Monahan, J.B. and Michel, J., "Identification and Characterization of an N-methyl-D-aspartate-specific L[^3 H]glutamate Recognition Site in Synaptic Plasma Membranes, J. Neurochem., 48, […] (1987)]. The SPM were stored at a concentration of 10-15 mg/ml in 0.32M sucrose, 0.5 mM EDTA, 1 mM MgSO4, 5 mM Tris/SO4, pH 7.4, under liquid nitrogen. The identity and purity of the subcellular fractions were confirmed by both electron microscopy and marker enzymes. Protein concentrations were determined by using a modification of the method of Lowry [Ohnishi, S.T. and Barr, J.K., "A Simplified Method of Quantitating Proteins Using the Biuret and Phenol Reagents", anal. Biochem., 86, 193-197 (1978)]. The SPM were treated identically for the [^3 H]AMPA (QUIS), [3H]kainate and sodium-dependent L-[^3 H]-glumatate binding assays. […] Beckman MP scintillation cocktail containing 7 mL/1 acetic acid was then added and the samples counted on a Beckman LS 5800 or 3801 liquid scintillation counter with automatic corrections for quenching and counting efficiency. […] Radioligand binding to the synaptic plasma membranes was analyzed using Scatchard and Hill transformations and the Ki values of the compounds determined using logit-log transformations. […]

[2] = biological target: [^3 H]MK-801 binding, rat SPM (synaptic plasma membranes); experiment: [^3 H]MK-801 Binding assay (modulation of [^3 H]MK-801 binding); conditions: 5.0 nM [^3 H]MK-801, L-glutamate 10.0 nM; Triton X-100 treated rat SPM; pH 7.4; 25° C., 30 min
Procedure: Modulation of [^3 H]MK-801 binding was performed using Triton X-100 (0.04% v/v) treated rat SPM that had been extensively washed. Assay incubations were at 25° C. for 30 min. and contained 5.0 nM [^3 H]MK-801, L-glutamate (10.0 nM), and various concentrations of the tested compounds in 50 mM Tris/acetate, pH 7.4. The assay was stopped by rapid filtration, using Brandel MB-48 Harvester, through Whatman GF/B filters treated with 0.05% polyethylenimine and the samples washed four times with 2.0 mL cold buffer. The radioactivity associated with the filter was determined by liquid scintillation spectrometry. Nonspecific binding was defined using 60 μM MK-801. IC50 were determined using a logit-log transformation of the binding data.

Kainate (KA) receptor = experiment: [^3 H]kainate (KA) receptor subclass binding assay, synaptic plasma membranes; conditions: 0.5 nM [^3 H]kainate; SPM; pH 7.4; 0-4° C., 60 min
Procedure: as §1

| [^3 H]GLU % inhibition ([1]; @ 10 μM) | Ki [2] | Ki ([1]; NMDA-specific L-[^3 H]glutamate 12.5 nM, Triton X-100 treated SPM, pH 7.4, 0-4° C., 10 min) | KA Ki (Kainate (KA) receptor) | Structure (SMILES) |
| --- | --- | --- | --- | --- |
| 42% | – | – | – | O=C(O)c1cn2c(n1)NC(CP(=O)(O)O)CC2 (stereo not shown) [Example 2, 7-phosphonomethyl-5,6,7,8-tetrahydro-imidazo[1,2-a]pyrimidine-2-carboxylicacid] |
| – | 280 nM | 700 nM | > 10000 nM | O=C(O)c1cn2c(n1)NCCC2CP(=O)(O)O (stereo not shown) [Example 1, 5-Phosphonomethyl-5,6,7,8-tetrahydro-imidazo [1,2-a]pyrimidine-2-carboxylic acid, ammonium salt] |
